Measurements taken from patent US7118895B2, “Process for producing aglycon by using diglycosidase and flavor-improved food containing the aglycon and converting agent to be used in the process” (Amano Enzyme Inc., priority 2000, dated 2006).

Assays:
[1] = system: β-Glucosidase derived from A. niger; assay: Reactivity toward various isoflavone glycosides (HPLC); format: biochemical, Aspergillus niger; design: glucoside / aglycon: unit not given here; conditions: 55 °C, pH 4.0
Outline: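 Aglycone liberation was measured by reversed-phase HPLC (260 nm, calibration-curve quantitation) after ethanol extraction at 0, 1, 3 and 6 h. Reactions ran at 55° C, pH 4.0 (20 mM acetate), with each glycoside (from 2 mM methanol stock) and 0.75 AU/mL enzyme solution.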

Crude diglycosidase = assay: Examination of substrate concentration in the conversion into isoflavone aglycons by diglycosidase using soybean materials; format: biochemical, Penicillium multicolor IAM7153;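 note: percent of the isoflavone family total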
Outline: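 Reaction at 55° C, shaken, pH 4.0 (20 mM acetate), using crude diglycosidase from a 1.88 AU/mL enzyme solution on soy flour, soymilk, defatted soybean or soy protein concentrate at 2, 5, 10, 20 or 30% (w/v). Isoflavone aglycons quantified by HPLC of ethanol extracts at 0, 1, 3, 6 h.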

## COc1cc2c(=O)c(-c3ccc(O)cc3)coc2cc1O[C@@H]1O[C@H](COC(C)=O)[C@@H](O)[C@H](O)[C@H]1O [acetylglycitin, 6″-O-acetylglycitin]
[1]; Reaction time 0 h
  aglycon: 0
  glucoside: 100
[1]; Reaction time 1 h
  aglycon: 0
  glucoside: 100
[1]; Reaction time 3 h
  aglycon: 1
  glucoside: 99
[1]; Reaction time 6 h
  aglycon: 1.9
  glucoside: 98.1
Crude diglycosidase; concentrated soybean protein, substrate concentration 2%, heat treatment of enzyme no, reaction time 0 h
  Decomposition efficiency: ratio of each glycoside/aglycon within its isoflavone family: 35.8%
Crude diglycosidase; concentrated soybean protein, substrate concentration 2%, heat treatment of enzyme no, reaction time 1 h
  Decomposition efficiency: ratio of each glycoside/aglycon within its isoflavone family: 14.3%
Crude diglycosidase; concentrated soybean protein, substrate concentration 2%, heat treatment of enzyme no, reaction time 3 h
  Decomposition efficiency: ratio of each glycoside/aglycon within its isoflavone family: 5.3%
Crude diglycosidase; concentrated soybean protein, substrate concentration 2%, heat treatment of enzyme no, reaction time 6 h
  Decomposition efficiency: ratio of each glycoside/aglycon within its isoflavone family: 0.0%
Crude diglycosidase; concentrated soybean protein, substrate concentration 2%, heat treatment of enzyme yes, reaction time 6 h
  Decomposition efficiency: ratio of each glycoside/aglycon within its isoflavone family: 35.0%
Crude diglycosidase; concentrated soybean protein, substrate concentration 5%, heat treatment of enzyme no, reaction time 0 h
  Decomposition efficiency: ratio of each glycoside/aglycon within its isoflavone family: 35.6%
Crude diglycosidase; concentrated soybean protein, substrate concentration 5%, heat treatment of enzyme no, reaction time 1 h
  Decomposition efficiency: ratio of each glycoside/aglycon within its isoflavone family: 27.1%
Crude diglycosidase; concentrated soybean protein, substrate concentration 5%, heat treatment of enzyme no, reaction time 3 h
  Decomposition efficiency: ratio of each glycoside/aglycon within its isoflavone family: 17.8%
Crude diglycosidase; concentrated soybean protein, substrate concentration 5%, heat treatment of enzyme no, reaction time 6 h
  Decomposition efficiency: ratio of each glycoside/aglycon within its isoflavone family: 12.3%
Crude diglycosidase; concentrated soybean protein, substrate concentration 5%, heat treatment of enzyme yes, reaction time 6 h
  Decomposition efficiency: ratio of each glycoside/aglycon within its isoflavone family: 34.4%
Crude diglycosidase; concentrated soybean protein, substrate concentration 10%, heat treatment of enzyme no, reaction time 0 h
  Decomposition efficiency: ratio of each glycoside/aglycon within its isoflavone family: 35.7%
Crude diglycosidase; concentrated soybean protein, substrate concentration 10%, heat treatment of enzyme no, reaction time 1 h
  Decomposition efficiency: ratio of each glycoside/aglycon within its isoflavone family: 31.2%
Crude diglycosidase; concentrated soybean protein, substrate concentration 10%, heat treatment of enzyme no, reaction time 3 h
  Decomposition efficiency: ratio of each glycoside/aglycon within its isoflavone family: 26.2%
Crude diglycosidase; concentrated soybean protein, substrate concentration 10%, heat treatment of enzyme no, reaction time 6 h
  Decomposition efficiency: ratio of each glycoside/aglycon within its isoflavone family: 23.9%
Crude diglycosidase; concentrated soybean protein, substrate concentration 10%, heat treatment of enzyme yes, reaction time 6 h
  Decomposition efficiency: ratio of each glycoside/aglycon within its isoflavone family: 35.2%
Crude diglycosidase; concentrated soybean protein, substrate concentration 20%, heat treatment of enzyme no, reaction time 0 h
  Decomposition efficiency: ratio of each glycoside/aglycon within its isoflavone family: 35.9%
Crude diglycosidase; concentrated soybean protein, substrate concentration 20%, heat treatment of enzyme no, reaction time 1 h
  Decomposition efficiency: ratio of each glycoside/aglycon within its isoflavone family: 35.4%
Crude diglycosidase; concentrated soybean protein, substrate concentration 20%, heat treatment of enzyme no, reaction time 3 h
  Decomposition efficiency: ratio of each glycoside/aglycon within its isoflavone family: 33.6%
Crude diglycosidase; concentrated soybean protein, substrate concentration 20%, heat treatment of enzyme no, reaction time 6 h
  Decomposition efficiency: ratio of each glycoside/aglycon within its isoflavone family: 30.5%
Crude diglycosidase; concentrated soybean protein, substrate concentration 20%, heat treatment of enzyme yes, reaction time 6 h
  Decomposition efficiency: ratio of each glycoside/aglycon within its isoflavone family: 35.8%
Crude diglycosidase; concentrated soybean protein, substrate concentration 30%, heat treatment of enzyme no, reaction time 0 h
  Decomposition efficiency: ratio of each glycoside/aglycon within its isoflavone family: 33.9%
Crude diglycosidase; concentrated soybean protein, substrate concentration 30%, heat treatment of enzyme no, reaction time 1 h
  Decomposition efficiency: ratio of each glycoside/aglycon within its isoflavone family: 35.9%
Crude diglycosidase; concentrated soybean protein, substrate concentration 30%, heat treatment of enzyme no, reaction time 3 h
  Decomposition efficiency: ratio of each glycoside/aglycon within its isoflavone family: 30.7%
Crude diglycosidase; concentrated soybean protein, substrate concentration 30%, heat treatment of enzyme no, reaction time 6 h
  Decomposition efficiency: ratio of each glycoside/aglycon within its isoflavone family: 28.3%
Crude diglycosidase; concentrated soybean protein, substrate concentration 30%, heat treatment of enzyme yes, reaction time 6 h
  Decomposition efficiency: ratio of each glycoside/aglycon within its isoflavone family: 33.4%
Crude diglycosidase; defatted soybean, substrate concentration 2%, heat treatment of enzyme no, reaction time 0 h
  Decomposition efficiency: ratio of each glycoside/aglycon within its isoflavone family: not detected
Crude diglycosidase; defatted soybean, substrate concentration 2%, heat treatment of enzyme no, reaction time 1 h
  Decomposition efficiency: ratio of each glycoside/aglycon within its isoflavone family: not detected
Crude diglycosidase; defatted soybean, substrate concentration 2%, heat treatment of enzyme no, reaction time 3 h
  Decomposition efficiency: ratio of each glycoside/aglycon within its isoflavone family: not detected
Crude diglycosidase; defatted soybean, substrate concentration 2%, heat treatment of enzyme no, reaction time 6 h
  Decomposition efficiency: ratio of each glycoside/aglycon within its isoflavone family: not detected
Crude diglycosidase; defatted soybean, substrate concentration 2%, heat treatment of enzyme yes, reaction time 6 h
  Decomposition efficiency: ratio of each glycoside/aglycon within its isoflavone family: not detected
Crude diglycosidase; defatted soybean, substrate concentration 5%, heat treatment of enzyme no, reaction time 0 h
  Decomposition efficiency: ratio of each glycoside/aglycon within its isoflavone family: not detected
Crude diglycosidase; defatted soybean, substrate concentration 5%, heat treatment of enzyme no, reaction time 1 h
  Decomposition efficiency: ratio of each glycoside/aglycon within its isoflavone family: not detected
Crude diglycosidase; defatted soybean, substrate concentration 5%, heat treatment of enzyme no, reaction time 3 h
  Decomposition efficiency: ratio of each glycoside/aglycon within its isoflavone family: not detected
Crude diglycosidase; defatted soybean, substrate concentration 5%, heat treatment of enzyme no, reaction time 6 h
  Decomposition efficiency: ratio of each glycoside/aglycon within its isoflavone family: not detected
Crude diglycosidase; defatted soybean, substrate concentration 5%, heat treatment of enzyme yes, reaction time 6 h
  Decomposition efficiency: ratio of each glycoside/aglycon within its isoflavone family: not detected
Crude diglycosidase; defatted soybean, substrate concentration 10%, heat treatment of enzyme no, reaction time 0 h
  Decomposition efficiency: ratio of each glycoside/aglycon within its isoflavone family: not detected
Crude diglycosidase; defatted soybean, substrate concentration 10%, heat treatment of enzyme no, reaction time 1 h
  Decomposition efficiency: ratio of each glycoside/aglycon within its isoflavone family: not detected
Crude diglycosidase; defatted soybean, substrate concentration 10%, heat treatment of enzyme no, reaction time 3 h
  Decomposition efficiency: ratio of each glycoside/aglycon within its isoflavone family: not detected
Crude diglycosidase; defatted soybean, substrate concentration 10%, heat treatment of enzyme no, reaction time 6 h
  Decomposition efficiency: ratio of each glycoside/aglycon within its isoflavone family: not detected
Crude diglycosidase; defatted soybean, substrate concentration 10%, heat treatment of enzyme yes, reaction time 6 h
  Decomposition efficiency: ratio of each glycoside/aglycon within its isoflavone family: not detected
Crude diglycosidase; roasted soy flour, substrate concentration 2%, heat treatment of enzyme no, reaction time 0 h
  Decomposition efficiency: ratio of each glycoside/aglycon within its isoflavone family: 33.6%
Crude diglycosidase; roasted soy flour, substrate concentration 2%, heat treatment of enzyme no, reaction time 1 h
  Decomposition efficiency: ratio of each glycoside/aglycon within its isoflavone family: not detected
Crude diglycosidase; roasted soy flour, substrate concentration 2%, heat treatment of enzyme no, reaction time 3 h
  Decomposition efficiency: ratio of each glycoside/aglycon within its isoflavone family: not detected
Crude diglycosidase; roasted soy flour, substrate concentration 2%, heat treatment of enzyme no, reaction time 6 h
  Decomposition efficiency: ratio of each glycoside/aglycon within its isoflavone family: not detected
Crude diglycosidase; roasted soy flour, substrate concentration 2%, heat treatment of enzyme yes, reaction time 6 h
  Decomposition efficiency: ratio of each glycoside/aglycon within its isoflavone family: 34.4%
Crude diglycosidase; roasted soy flour, substrate concentration 5%, heat treatment of enzyme no, reaction time 0 h
  Decomposition efficiency: ratio of each glycoside/aglycon within its isoflavone family: 33.8%
Crude diglycosidase; roasted soy flour, substrate concentration 5%, heat treatment of enzyme no, reaction time 1 h
  Decomposition efficiency: ratio of each glycoside/aglycon within its isoflavone family: 11.8%
Crude diglycosidase; roasted soy flour, substrate concentration 5%, heat treatment of enzyme no, reaction time 3 h
  Decomposition efficiency: ratio of each glycoside/aglycon within its isoflavone family: 7.2%
Crude diglycosidase; roasted soy flour, substrate concentration 5%, heat treatment of enzyme no, reaction time 6 h
  Decomposition efficiency: ratio of each glycoside/aglycon within its isoflavone family: not detected
Crude diglycosidase; roasted soy flour, substrate concentration 5%, heat treatment of enzyme yes, reaction time 6 h
  Decomposition efficiency: ratio of each glycoside/aglycon within its isoflavone family: 33.8%
Crude diglycosidase; roasted soy flour, substrate concentration 10%, heat treatment of enzyme no, reaction time 0 h
  Decomposition efficiency: ratio of each glycoside/aglycon within its isoflavone family: 24.2%
Crude diglycosidase; roasted soy flour, substrate concentration 10%, heat treatment of enzyme no, reaction time 1 h
  Decomposition efficiency: ratio of each glycoside/aglycon within its isoflavone family: 16.7%
Crude diglycosidase; roasted soy flour, substrate concentration 10%, heat treatment of enzyme no, reaction time 3 h
  Decomposition efficiency: ratio of each glycoside/aglycon within its isoflavone family: 9.7%
Crude diglycosidase; roasted soy flour, substrate concentration 10%, heat treatment of enzyme no, reaction time 6 h
  Decomposition efficiency: ratio of each glycoside/aglycon within its isoflavone family: not detected
Crude diglycosidase; roasted soy flour, substrate concentration 10%, heat treatment of enzyme yes, reaction time 6 h
  Decomposition efficiency: ratio of each glycoside/aglycon within its isoflavone family: 35.1%
Crude diglycosidase; roasted soy flour, substrate concentration 20%, heat treatment of enzyme no, reaction time 0 h
  Decomposition efficiency: ratio of each glycoside/aglycon within its isoflavone family: 31.8%
Crude diglycosidase; roasted soy flour, substrate concentration 20%, heat treatment of enzyme no, reaction time 1 h
  Decomposition efficiency: ratio of each glycoside/aglycon within its isoflavone family: 22.9%
Crude diglycosidase; roasted soy flour, substrate concentration 20%, heat treatment of enzyme no, reaction time 3 h
  Decomposition efficiency: ratio of each glycoside/aglycon within its isoflavone family: 13.8%
Crude diglycosidase; roasted soy flour, substrate concentration 20%, heat treatment of enzyme no, reaction time 6 h
  Decomposition efficiency: ratio of each glycoside/aglycon within its isoflavone family: 10.0%
Crude diglycosidase; roasted soy flour, substrate concentration 20%, heat treatment of enzyme yes, reaction time 6 h
  Decomposition efficiency: ratio of each glycoside/aglycon within its isoflavone family: 35.0%
Crude diglycosidase; roasted soy flour, substrate concentration 30%, heat treatment of enzyme no, reaction time 0 h
  Decomposition efficiency: ratio of each glycoside/aglycon within its isoflavone family: 35.3%
Crude diglycosidase; roasted soy flour, substrate concentration 30%, heat treatment of enzyme no, reaction time 1 h
  Decomposition efficiency: ratio of each glycoside/aglycon within its isoflavone family: 28.4%
Crude diglycosidase; roasted soy flour, substrate concentration 30%, heat treatment of enzyme no, reaction time 3 h
  Decomposition efficiency: ratio of each glycoside/aglycon within its isoflavone family: 24.4%
Crude diglycosidase; roasted soy flour, substrate concentration 30%, heat treatment of enzyme no, reaction time 6 h
  Decomposition efficiency: ratio of each glycoside/aglycon within its isoflavone family: 13.7%
Crude diglycosidase; roasted soy flour, substrate concentration 30%, heat treatment of enzyme yes, reaction time 6 h
  Decomposition efficiency: ratio of each glycoside/aglycon within its isoflavone family: 34.4%
